Experimental data reported in the CheMixHub ionic liquid set.
± gives the uncertainty stated by the source.

Assay: xn = mol fraction of the nth substance listed
Conditions: for electrical conductivity: 101 kPa, x1 = 1; for viscosity: 100 kPa

Q: With `CC[n+]1ccn(C)c1.O=S(=O)([N-]S(=O)(=O)C(F)(F)F)C(F)(F)F` + [I-].[Li+] as the compound, how does the electrical conductivity (288.15 K) read?
A: 0.611 ± 0.061 S/m

Q: And the electrical conductivity (298.15 K)?
A: 0.883 ± 0.089 S/m

Q: And the electrical conductivity (333.15 K)?
A: 2.18 ± 0.22 S/m

Q: Which viscosity (198.25 K, x1 = 0.4, x2 = 0.05) does the source give for `CCCC[n+]1ccn(C)c1.[I-]` + [I-].[Li+] + O here?
A: 1.3e+08 mPa·s

Q: And the viscosity (198.65 K, x1 = 0.05, x2 = 0.05)?
A: 15000 mPa·s

Q: And the viscosity (203.85 K, x1 = 0.05, x2 = 0.05)?
A: 6900 mPa·s

Q: And the viscosity (203.85 K, x1 = 0.4, x2 = 0.05)?
A: 1.32e+07 ± 3.2e+06 mPa·s

Q: What about the viscosity (208.75 K, x1 = 0.05, x2 = 0.05) of the same compound?
A: 3700 mPa·s

Q: And the viscosity (209.15 K, x1 = 0.4, x2 = 0.05)?
A: 2900000 mPa·s

Q: What about the viscosity (213.95 K, x1 = 0.05, x2 = 0.05) of the same compound?
A: 1900 mPa·s

Q: What about the viscosity (213.95 K, x1 = 0.4, x2 = 0.05) of the same compound?
A: 490000 mPa·s

Q: What about the viscosity (218.85 K, x1 = 0.05, x2 = 0.05) of the same compound?
A: 1600 mPa·s

Q: What about the viscosity (218.85 K, x1 = 0.4, x2 = 0.05) of the same compound?
A: 180000 mPa·s

Q: And the viscosity (224.05 K, x1 = 0.05, x2 = 0.05)?
A: 1200 mPa·s

Q: And the viscosity (224.05 K, x1 = 0.4, x2 = 0.05)?
A: 68000 mPa·s

Q: What about the viscosity (228.55 K, x1 = 0.4, x2 = 0.05) of the same compound?
A: 29000 mPa·s

Q: What about the viscosity (228.95 K, x1 = 0.05, x2 = 0.05) of the same compound?
A: 810 mPa·s

Q: And the viscosity (233.05 K, x1 = 0.05, x2 = 0.05)?
A: 470 mPa·s

Q: And the viscosity (234.15 K, x1 = 0.4, x2 = 0.05)?
A: 15000 mPa·s

Q: And the viscosity (236.45 K, x1 = 0.05, x2 = 0.05)?
A: 320 mPa·s

Q: And the viscosity (238.25 K, x1 = 0.4, x2 = 0.05)?
A: 8000 mPa·s

Q: And the viscosity (241.25 K, x1 = 0.05, x2 = 0.05)?
A: 220 mPa·s

Q: And the viscosity (243.85 K, x1 = 0.4, x2 = 0.05)?
A: 3700 mPa·s

Q: And the viscosity (246.15 K, x1 = 0.05, x2 = 0.05)?
A: 150 mPa·s

Q: What about the viscosity (248.75 K, x1 = 0.05, x2 = 0.05) of the same compound?
A: 11 mPa·s

Q: And the viscosity (249.15 K, x1 = 0.4, x2 = 0.05)?
A: 2500 mPa·s

Q: And the viscosity (253.95 K, x1 = 0.05, x2 = 0.05)?
A: 9.7 mPa·s

Q: What about the viscosity (253.95 K, x1 = 0.4, x2 = 0.05) of the same compound?
A: 1600 mPa·s

Q: And the viscosity (259.25 K, x1 = 0.4, x2 = 0.05)?
A: 1000 mPa·s

Q: And the viscosity (259.65 K, x1 = 0.05, x2 = 0.05)?
A: 7.7 mPa·s

Q: And the viscosity (263.4 K, x1 = 0.05, x2 = 0.05)?
A: 6.1 mPa·s

Q: And the viscosity (264.1 K, x1 = 0.4, x2 = 0.05)?
A: 600 mPa·s

Q: What about the viscosity (268.6 K, x1 = 0.4, x2 = 0.05) of the same compound?
A: 440 mPa·s

Q: And the viscosity (268.9 K, x1 = 0.05, x2 = 0.05)?
A: 5.2 mPa·s

Q: And the viscosity (273 K, x1 = 0.4, x2 = 0.05)?
A: 280 mPa·s

Q: What about the viscosity (274 K, x1 = 0.05, x2 = 0.05) of the same compound?
A: 4.5 mPa·s

Q: And the viscosity (278.6 K, x1 = 0.05, x2 = 0.05)?
A: 4.5 mPa·s

Q: And the viscosity (279.1 K, x1 = 0.4, x2 = 0.05)?
A: 180 mPa·s

Q: And the viscosity (283.55 K, x1 = 0.05, x2 = 0.05)?
A: 3.9 mPa·s

Q: What about the viscosity (283.55 K, x1 = 0.4, x2 = 0.05) of the same compound?
A: 120 mPa·s

Q: And the viscosity (288.45 K, x1 = 0.05, x2 = 0.05)?
A: 3.6 mPa·s

Q: What about the viscosity (289.15 K, x1 = 0.4, x2 = 0.05) of the same compound?
A: 82 mPa·s

Q: And the viscosity (293.65 K, x1 = 0.05, x2 = 0.05)?
A: 3.1 mPa·s

Q: What about the viscosity (293.65 K, x1 = 0.4, x2 = 0.05) of the same compound?
A: 65 mPa·s

Q: What about the viscosity (298.55 K, x1 = 0.05, x2 = 0.05) of the same compound?
A: 2.6 mPa·s

Q: What about the viscosity (298.55 K, x1 = 0.4, x2 = 0.05) of the same compound?
A: 41 mPa·s

Q: Which results are given for `CC[n+]1ccn(C)c1.O=S(=O)([N-]S(=O)(=O)C(F)(F)F)C(F)(F)F` + c1ccccc1?
A: viscosity (298.15 K, x2 = 0.135): 25.2 ± 1.3 mPa·s; viscosity (298.15 K, x2 = 0.339): 15.64 ± 0.84 mPa·s; viscosity (318.15 K, x2 = 0.471): 6.8 ± 0.4 mPa·s; viscosity (328.15 K, x2 = 0): 13.68 ± 0.74 mPa·s; viscosity (328.15 K, x2 = 0.339): 7.26 ± 0.42 mPa·s
